51 compounds from the OPERA property sets (Mansouri et al. 2018) can be followed below.

On to `OCC=Cc1ccccc1`, for which the log10 vapour pressure (mmHg) was -1.62, the melting point was 33 °C and the ready biodegradability entry was “readily biodegradable”.

As to `CCOCOc1ccc(C(=O)Nc2cccc(Cl)c2Cl)cc1`, the melting point was 92.5 °C.

Turning to `COc1c2c(cc3oc(=O)ccc13)OC(C)(C)C=C2`, the melting point came to 133 °C.

As to `COCC(F)F`, the boiling point was determined as 48.5 °C and the log10 vapour pressure (mmHg) is 2.48.

On to `CCCCCCCCCCCCCCCCCCCCCCCCCCCC`, for which the boiling point came out at 432 °C, the log10 biodegradation half-life (days) turned out to be 2.1, the log10 vapour pressure (mmHg) is -8.8 and the melting point stood at 64.5 °C. Further, the ready biodegradability entry is on record as “readily biodegradable”.

Take `ClC(Cl)=CBr`: the boiling point turned out to be 108 °C and the melting point is -88.5 °C.

As for `Cc1ccc(O)c(O)c1`, the boiling point turned out to be 251 °C, the melting point amounted to 65 °C and the ready biodegradability result is listed as “not readily biodegradable”.

Compound `Cl/C=C\Cl` returned a boiling point of 54.4 °C, a log10 Henry constant (atm·m³/mol) of -2.17, a log10 Koa of 2.56 and a melting point of -64.9 °C.

Compound `Clc1cc(Cl)c2ccccc2c1` gave a boiling point of 291 °C and a melting point of 62.3 °C.

In the case of `O=P(O)(O)CP(=O)(O)O`, the melting point amounted to 200 °C.

The compound `c1ccc2nccnc2c1` came in with a boiling point of 230 °C and a melting point of 28 °C.

As for `CCN(CC)CCOC(=O)C(O)(c1ccccc1)c1ccccc1.Cl`, the melting point was 178 °C.

Compound `COc1nccnc1CC(C)C` yielded a log10 Henry constant (atm·m³/mol) of -4.31.

Turning to `Cc1cc(C)c(O)c(C(=O)CC2CC(=O)NC(=O)C2)c1`, the melting point turned out to be 201 °C.

For the compound `CCc1ccc(Cl)cc1`, the boiling point turned out to be 184 °C and the melting point was -62.6 °C.

In turn, `COc1cc(OC)c(OC)cc1C=O` gave a melting point of 114 °C.

Take `NCc1ccc(Br)cc1`: the boiling point was found to be 250 °C and the melting point came to 20 °C.

Turning to `CCC(=O)O`, the boiling point was found to be 141 °C, the log10 Henry constant (atm·m³/mol) was -6.35, the log10 vapour pressure (mmHg) came out at 0.548 and the melting point was -20.7 °C. The ready biodegradability result is reported as “readily biodegradable”.

`CCCCCC(=O)CC`: the boiling point came out at 168 °C and the log10 vapour pressure (mmHg) was 0.301.

As to `CCCCC1CCC(OC(=O)C2CCC(CCCC)CC2)CC1` (stereo unspecified), the ready biodegradability entry was “readily biodegradable”.

Consider `Nc1ccc2c(c1)Cc1cc(N)ccc1-2`, for which the melting point turned out to be 166 °C.

Turning to `Cc1ccsc1`, the boiling point stood at 116 °C, the log10 vapour pressure (mmHg) was determined as 1.35, the melting point was -69 °C and the ready biodegradability entry is on record as “not readily biodegradable”.

As to `NCCNCCN`, the boiling point amounted to 207 °C, the melting point was -39 °C and the ready biodegradability entry is recorded as “not readily biodegradable”.

As for `CC(=O)CC(=O)Nc1ccc(C)cc1C`, the melting point amounted to 90 °C and the ready biodegradability result is on record as “not readily biodegradable”.

Consider `CCCC=C(C=O)CC`, for which the boiling point came out at 195 °C, the log10 vapour pressure (mmHg) amounted to 0.107 and the ready biodegradability entry is recorded as “readily biodegradable”.

Compound `ClC1c2ccccc2CCc2ccccc21` came in with a melting point of 106 °C.

In the case of `Nc1c(Oc2ccc(Br)cc2)cc(O)c2c1C(=O)c1ccccc1C2=O`, the ready biodegradability result was “not readily biodegradable”.

Take `CCOc1cccc(OCC)c1`: the boiling point is 235 °C and the melting point was 12.4 °C.

As for `C=C1CC=C(C(C)C)CC1`, the boiling point worked out at 174 °C.

In turn, `CC(C)(Oc1ccc(Cl)cc1)C(=O)O` returned a melting point of 118 °C.

Compound `Fc1cccc2ccccc12` returned a boiling point of 215 °C and a melting point of -9 °C.

In turn, `CC(C)CC(=O)OCC(COC(=O)CC(C)C)OC(=O)CC(C)C` registered a boiling point of 332 °C.

For `CCOc1cccc(F)c1`, the boiling point is 172 °C and the melting point is -27.5 °C.

`CC[N+](C)(CC)CCOC(=O)C1c2ccccc2Oc2ccccc21.[Br-]` registered a melting point of 174 °C.

Regarding `CCOCCO`, the boiling point was determined as 135 °C, the log10 Henry constant (atm·m³/mol) is -6.33, the log10 vapour pressure (mmHg) was found to be 0.725 and the melting point is -70 °C. The ready biodegradability entry was “readily biodegradable”.

In turn, `c1ccc2cnncc2c1` returned a boiling point of 316 °C and a melting point of 90.5 °C.

`COc1ccccc1C(=O)O`: the log10 vapour pressure (mmHg) is -4.8, the melting point turned out to be 101 °C and the ready biodegradability entry was “readily biodegradable”.

`COc1ccc(N)c(C)c1` gave a boiling point of 248 °C and a melting point of 29.5 °C.

Take `C=CCOCCC`: the boiling point amounted to 91 °C and the log10 vapour pressure (mmHg) is 1.78.

For `CC(C)C(NC(N)=O)NC(N)=O`, the ready biodegradability result is on record as “readily biodegradable”.

Take `Ic1cccc(I)c1I`: the melting point is 116 °C.

Compound `CCOc1cccc(N(CC)CC)c1` had a boiling point of 286 °C.

Consider `NC(=O)C1CCN(CCCN2c3ccccc3Sc3ccc(Cl)cc32)CC1`, for which the melting point was 139 °C.

As for `O=[N+]([O-])c1cc(Cl)ccc1O`, the melting point came to 88.5 °C and the ready biodegradability entry is recorded as “not readily biodegradable”.

Turning to `CC(C)CBr`, the boiling point came out at 91.1 °C and the melting point is -119 °C.

As to `COc1ccc2c(c1)c(CC(=O)O)c(C)n2C(=O)c1ccc(Cl)cc1`, the melting point stood at 158 °C.

Consider `CCCCCCCCCCCC(N)=O`, for which the melting point worked out at 110 °C.

The compound `Nc1ccc(S(=O)(=O)c2ccc(NCC(=O)O)cc2)cc1` had a melting point of 194 °C.

`O=[N+]([O-])c1ccc(S(=O)(=O)O)cc1`: the ready biodegradability entry was “not readily biodegradable”.

As to `Nc1ccn([C@@H]2O[C@H](CO)[C@@H](O)[C@@H]2O)c(=O)n1`, the melting point came to 212 °C.

Consider `CCN(CC)c1ccc(Br)cc1`, for which the boiling point is 270 °C and the melting point came out at 38 °C.
